Laboratory results from patent US3962282A, “Juvenile hormone mimics” (priority 1974, dated 1976).

Columns and labels:
Type in all cases: in vivo
[1] = tested on: Mexican bean beetle larvae; assay: spray of caged flats of bean plants with Mexican bean beetle larvae
Method: Six-foot by 12-foot caged flats were planted with Bountiful variety bean plants in two 12-foot rows. Into each cage were introduced 100 Mexican bean beetle larvae. Each cage was then sprayed with 500 ml. of a solution prepared by diluting a 48 percent emulsifiable concentrate of 2,6-dimethyl-9-(3,4-methylenedioxyphenyl)-2,6-nonadiene to the desired concentration. Two flats were treated at each concentration and two were used as controls.

[2] = tested on: Aedes aegypti mosquito larvae; assay: mosquito larvae in aqueous solutions, adult emergence; conditions: for number of adults, Jar 1 Dead / number of adults, Jar 1 Living / number of adults, Jar 2 Dead / number of adults, Jar 2 Living: 13 days
Method: Two compounds, 7,8-epoxy-4-ethyl-8-methyl-1-(3,4-methylenedioxyphenyl)-3-decene and 2,6-diemthyl-9-(3,4-methylenedioxyphenyl)-2,6-nonadiene, were tested against Aedes aegypti mosquito larvae in aqueous solutions at concentrations of 10, 5, 2.5. 1.25 and 0.625 ppm. each. Ninety milliliters of each solution were placed in a pint jar and 30 five-day-old mosquito larvae were added to each jar. Two tests were run at each concentration and control tests employing only solvent with no compound were also run. Food was added to each jar, the jars were covered with cloths, and maintained at 29°C. until adults emerged in the control jars. The number of adults in the test jars was determined.

wax moth = assay: topical application to wax moth, fifth larval stage, maturation inhibition
Method in brief: (§1)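 Compounds applied topically, 1 μL acetone solution at 10%, 1% or 0.5%, to ten specimens per insect per concentration, alongside acetone and untreated controls; scored after about 8–10 days. Juvenile/adult characteristics rated 0–3 (Tenebrio 0–4), ≥2 meaning unable to reproduce; unreported specimens died during metamorphosis.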

[3] = tested on: Mexican bean beetle larvae; assay: soil drench of bean plants with Mexican bean beetle larvae; conditions: scale 0-3
Method: Bean plants of the Bountiful variety were placed in soil and allowed to grow with 10 Mexican bean beetle larvae on each cluster. To the soil around each plant was added 200 ml. of a solution containing 2,6-dimethyl-9-(3,4-methylenedioxyphenyl)-2,6-nonadiene. The soil was then covered with aluminum foil to prevent the larvae from coming in contact with the compound. Three different concentrations of compound were applied. These were prepared from a 48 percent emulsifiable concentrate by diluting 10 ml., 4 ml., and 2 ml. of the concentrate to a volume of 200 ml. with water. A control using 200 ml. of just water and another using no drench were also run. The results are tabulated below using the same rating system as described earlier for the primary screening test agains Mexican bean beetle.

Mexican bean beetle = assay: topical application to Mexican bean beetle, fourth larval stage, maturation inhibition; conditions: rating scale 0-3
Method in brief: as §1

[4] = tested on: Housefly (Musca domestica); assay: housefly rearing diet test, percent adult emergence
Method: Test compounds were mixed with the rearing diet of houseflys at various levels. The prepared diet was then placed in an 8 oz. drinking cup. Three cups were prepared for each treatment level and three control cups. Housefly eggs (Musca domestica) were placed in each cup and they were maintained at 28°C. for 1 week. Fifty pupae were then removed from each cup and placed in a petri dish. After the control pupae had emerged into adults, the percent emergence in each dish was recorded. The test compounds used were 7,8-epoxy-4-ethyl-8-methyl-1-(3,4-methylenedioxyphenyl)-3-decene, 4,8-dimetyl-1-(3,4-methylenedioxyphenyl)-2,6-nonadiene and 2,6-dichloro-2,6-dimethyl-9-(3,4-methylenedioxyphenyl)nonane.

CC(C)=CCCC(C)=CCCc1ccc2c(c1)OCO2 [2,6-dimethyl-9-(3,4-methylenedioxyphenyl)-2,6-nonadiene]
% Control ([1]; 0.1 lbs./acre): 13% | % Control ([1]; 0.2 lbs./acre): 71.5% | % Control ([1]; 0.4 lbs./acre): 75.5% | % Control ([1]; 0.8 lbs./acre): 98.5% | number of adults, Jar 1 Dead ([2]; 0.625 ppm): 21 | number of adults, Jar 1 Living ([2]; 0.625 ppm): 1 | number of adults, Jar 2 Dead ([2]; 0.625 ppm): 21 | number of adults, Jar 2 Living ([2]; 0.625 ppm): 0 | number of adults, Jar 1 Dead ([2]; 1.25 ppm): 1 | number of adults, Jar 1 Living ([2]; 1.25 ppm): 3 | number of adults, Jar 2 Dead ([2]; 1.25 ppm): 10 | number of adults, Jar 2 Living ([2]; 1.25 ppm): 1 | number of adults, Jar 1 Dead ([2]; 2.5 ppm): 0 | number of adults, Jar 1 Living ([2]; 2.5 ppm): 0 | number of adults, Jar 2 Dead ([2]; 2.5 ppm): 1 | number of adults, Jar 2 Living ([2]; 2.5 ppm): 0 | number of adults, Jar 1 Dead ([2]; 5 ppm): 0 | number of adults, Jar 1 Living ([2]; 5 ppm): 0 | number of adults, Jar 2 Dead ([2]; 5 ppm): 0 | number of adults, Jar 2 Living ([2]; 5 ppm): 0 | number of adults, Jar 1 Dead ([2]; 10 ppm): 0 | number of adults, Jar 1 Living ([2]; 10 ppm): 0 | number of adults, Jar 2 Dead ([2]; 10 ppm): 0 | number of adults, Jar 2 Living ([2]; 10 ppm): 0 | control ([2]; at concentrations as low as 2.5 ppm): 100% | live adults in the jars ([2]; nonadiene at 10, 5, and 2.5 ppm, decene at any concentration): never any live adults | number of specimens in rating 0 (wax moth; 0.5%, rating scale 0-3): 8 specimens | number of specimens in rating 1 (wax moth; 0.5%, rating scale 0-3): 1 specimens | number of specimens in rating 0 (wax moth; 1%, rating scale 0-3): 9 specimens | number of specimens in rating 3 (wax moth; 1%, rating scale 0-3): 1 specimens | number of specimens in rating 0 (wax moth; 10% in acetone, 1 microliter topical, rating scale 0 (no effect) to 3 (maximum)): 7 specimens | number of specimens in rating 1 (wax moth; 10%, rating scale 0-3): 2 specimens | number of specimens in rating 3 (wax moth; 10%, rating scale 0-3): 1 specimens | number in rating 0 ([3]; 2 ml. concentrate/200 ml.): 8 | number in rating 3 ([3]; 2 ml. concentrate/200 ml.): 2 | number in rating 0 ([3]; 4 ml. concentrate/200 ml.): 2 | number in rating 3 ([3]; 4 ml. concentrate/200 ml.): 8 | number in rating 0 ([3]; 10 ml. concentrate/200 ml.): 1 | number in rating 3 ([3]; 10 ml. concentrate/200 ml.): 9 | number of specimens in rating 3 (Mexican bean beetle; 0.5%): 9 specimens | number of specimens in rating 3 (Mexican bean beetle; 1%): 10 specimens | number of specimens in rating 3 (Mexican bean beetle; 10%): 1 specimens | percent adult emergence, Cup 1 ([4]; 100 ppm in diet): 90% | percent adult emergence, Cup 2 ([4]; 100 ppm in diet): 30% | percent adult emergence, Cup 3 ([4]; 100 ppm in diet): 10% | control ([4]; 500 ppm): 100% | percent adult emergence, Cup 1 ([4]; 500 ppm in diet): 0% | percent adult emergence, Cup 2 ([4]; 500 ppm in diet): 0% | percent adult emergence, Cup 3 ([4]; 500 ppm in diet): 0%
